Measured values from PubChem BioAssay AID1259407 (Chemical Carcinogenesis Research Information System (CCRIS), 2018).
Active and inactive are the calls of the source. The rule behind the calls is not given here.

Tested on: CCRIS mutagenicity, Ames/micronucleus/aberration tests
Assay: CCRIS mutagenicity studies
[1] = Test System: AMES SALMONELLA TYPHIMURIUM, Strain/Indicator: TA98, Metabolic Activation: NONE, Method: PREINCUBATION
[2] = Test System: AMES SALMONELLA TYPHIMURIUM, Strain/Indicator: TA1535, Metabolic Activation: NONE, Method: PREINCUBATION
[3] = Test System: AMES SALMONELLA TYPHIMURIUM, Strain/Indicator: TA100, Metabolic Activation: NONE, Method: STANDARD PLATE
[4] = Test System: AMES SALMONELLA TYPHIMURIUM, Strain/Indicator: TA100, Metabolic Activation: RAT, LIVER, S-9, AROCLOR 1254, Method: STANDARD PLATE

CN(C)c1ccc(N(C)C)cc1
mutagenic call (End Point: IN VITRO CHROMOSOMAL ABERRATIONS, Test System: CHINESE HAMSTER LUNG CELLS (CHL), Metabolic Activation: NONE): active; positive (structural changes)
mutagenic call (End Point: IN VITRO CHROMOSOMAL ABERRATIONS, Test System: CHINESE HAMSTER LUNG CELLS (CHL), Metabolic Activation: RAT, LIVER, S-9, KC-400): active; positive (structural changes)
mutagenic call (End Point: IN VITRO CHROMOSOMAL ABERRATIONS, Test System: CHINESE HAMSTER OVARY CELLS (CHO), Metabolic Activation: NONE): active; positive at highest dose
mutagenic call (End Point: IN VITRO CHROMOSOMAL ABERRATIONS, Test System: CHINESE HAMSTER OVARY CELLS (CHO), Metabolic Activation: RAT, LIVER, S-9, AROCLOR 1254): active; positive (structural changes)
mutagenic call (Test System: AMES SALMONELLA TYPHIMURIUM, Strain/Indicator: TA97, Metabolic Activation: HAMSTER, LIVER, S-9, AROCLOR 1254 (10%), Method: PREINCUBATION): active; positive
mutagenic call (Test System: AMES SALMONELLA TYPHIMURIUM, Strain/Indicator: TA97, Metabolic Activation: RAT, LIVER, S-9, AROCLOR 1254 (10%), Method: PREINCUBATION): active; positive
mutagenic call (Test System: AMES SALMONELLA TYPHIMURIUM, Strain/Indicator: TA97, Metabolic Activation: RAT, LIVER, S-9, AROCLOR 1254 (30%), Method: PREINCUBATION): inactive; negative
mutagenic call (Test System: AMES SALMONELLA TYPHIMURIUM, Strain/Indicator: TA98, Metabolic Activation: HAMSTER, LIVER, S-9, AROCLOR 1254 (10%), Method: PREINCUBATION): inactive; negative
mutagenic call (Test System: AMES SALMONELLA TYPHIMURIUM, Strain/Indicator: TA98, Metabolic Activation: HAMSTER, LIVER, S-9, AROCLOR 1254 (30%), Method: PREINCUBATION): active; positive
mutagenic call [1]: inactive; negative
mutagenic call (Test System: AMES SALMONELLA TYPHIMURIUM, Strain/Indicator: TA98, Metabolic Activation: RAT, LIVER, S-9, AROCLOR 1254 (10%), Method: PREINCUBATION): inactive; negative
mutagenic call (Test System: AMES SALMONELLA TYPHIMURIUM, Strain/Indicator: TA98, Metabolic Activation: RAT, LIVER, S-9, AROCLOR 1254 (30%), Method: PREINCUBATION): inactive; negative
mutagenic call (Test System: AMES SALMONELLA TYPHIMURIUM, Strain/Indicator: TA100, Metabolic Activation: HAMSTER, LIVER, S-9, AROCLOR 1254 (10%), Method: PREINCUBATION): active; positive
mutagenic call (Test System: AMES SALMONELLA TYPHIMURIUM, Strain/Indicator: TA100, Metabolic Activation: HAMSTER, LIVER, S-9, AROCLOR 1254 (30%), Method: PREINCUBATION): active; positive
mutagenic call (Test System: AMES SALMONELLA TYPHIMURIUM, Strain/Indicator: TA100, Metabolic Activation: RAT, LIVER, S-9, AROCLOR 1254 (10%), Method: PREINCUBATION): active; positive
mutagenic call (Test System: AMES SALMONELLA TYPHIMURIUM, Strain/Indicator: TA100, Metabolic Activation: RAT, LIVER, S-9, AROCLOR 1254 (30%), Method: PREINCUBATION): active; positive
mutagenic call (Test System: AMES SALMONELLA TYPHIMURIUM, Strain/Indicator: TA1535, Metabolic Activation: HAMSTER, LIVER, S-9, AROCLOR 1254 (10%), Method: PREINCUBATION): inactive; negative
mutagenic call (Test System: AMES SALMONELLA TYPHIMURIUM, Strain/Indicator: TA1535, Metabolic Activation: HAMSTER, LIVER, S-9, AROCLOR 1254 (30%), Method: PREINCUBATION): inactive; negative
mutagenic call [2]: inactive; negative
mutagenic call (Test System: AMES SALMONELLA TYPHIMURIUM, Strain/Indicator: TA1535, Metabolic Activation: RAT, LIVER, S-9, AROCLOR 1254 (10%), Method: PREINCUBATION): inactive; negative
mutagenic call (Test System: AMES SALMONELLA TYPHIMURIUM, Strain/Indicator: TA1535, Metabolic Activation: RAT, LIVER, S-9, AROCLOR 1254 (30%), Method: PREINCUBATION): inactive; negative

NN1C(=O)c2ccccc2C1=O
mutagenic call (Test System: AMES SALMONELLA TYPHIMURIUM, Strain/Indicator: TA97A, Metabolic Activation: NONE, Method: STANDARD PLATE): inactive; negative
mutagenic call (Test System: AMES SALMONELLA TYPHIMURIUM, Strain/Indicator: TA97A, Metabolic Activation: RAT, LIVER, S-9, AROCLOR 1254, Method: STANDARD PLATE): inactive; negative
mutagenic call [3]: inactive; negative
mutagenic call [4]: inactive; negative
mutagenic call (Test System: AMES SALMONELLA TYPHIMURIUM, Strain/Indicator: TA102, Metabolic Activation: NONE, Method: STANDARD PLATE): inactive; negative
mutagenic call (Test System: AMES SALMONELLA TYPHIMURIUM, Strain/Indicator: TA102, Metabolic Activation: RAT, LIVER, S-9, AROCLOR 1254, Method: STANDARD PLATE): inactive; negative
mutagenic call (Test System: AMES SALMONELLA TYPHIMURIUM, Strain/Indicator: TA104, Metabolic Activation: NONE, Method: STANDARD PLATE): inactive; negative
mutagenic call (Test System: AMES SALMONELLA TYPHIMURIUM, Strain/Indicator: TA104, Metabolic Activation: RAT, LIVER, S-9, AROCLOR 1254, Method: STANDARD PLATE): inactive; negative

CCCCC/C=C/C(=O)CCc1ccc(O)c(OC)c1
mutagenic call (Test System: AMES SALMONELLA TYPHIMURIUM, Strain/Indicator: TA98, Metabolic Activation: NONE, Method: STANDARD PLATE): inactive; negative
mutagenic call (Test System: AMES SALMONELLA TYPHIMURIUM, Strain/Indicator: TA98, Metabolic Activation: RAT, LIVER, S-9, AROCLOR 1254, Method: STANDARD PLATE): inactive; negative
mutagenic call [3]: inactive; negative
mutagenic call [4]: active; positive
mutagenic call (Test System: AMES SALMONELLA TYPHIMURIUM, Strain/Indicator: TA1535, Metabolic Activation: NONE, Method: STANDARD PLATE): inactive; negative
mutagenic call (Test System: AMES SALMONELLA TYPHIMURIUM, Strain/Indicator: TA1535, Metabolic Activation: RAT, LIVER, S-9, AROCLOR 1254, Method: STANDARD PLATE): active; positive
mutagenic call (Test System: AMES SALMONELLA TYPHIMURIUM, Strain/Indicator: TA1538, Metabolic Activation: NONE, Method: STANDARD PLATE): inactive; negative
mutagenic call (Test System: AMES SALMONELLA TYPHIMURIUM, Strain/Indicator: TA1538, Metabolic Activation: RAT, LIVER, S-9, AROCLOR 1254, Method: STANDARD PLATE): inactive; negative

C=C(C)C(=O)O
mutagenic call (Test System: AMES SALMONELLA TYPHIMURIUM, Strain/Indicator: TA98, Metabolic Activation: HAMSTER, LIVER, S-9, AROCLOR 1254, Method: PREINCUBATION): inactive; negative
mutagenic call [1]: inactive; negative
mutagenic call (Test System: AMES SALMONELLA TYPHIMURIUM, Strain/Indicator: TA98, Metabolic Activation: RAT, LIVER, S-9, AROCLOR 1254, Method: PREINCUBATION): inactive; negative
mutagenic call (Test System: AMES SALMONELLA TYPHIMURIUM, Strain/Indicator: TA100, Metabolic Activation: HAMSTER, LIVER, S-9, AROCLOR 1254, Method: PREINCUBATION): inactive; negative
mutagenic call (Test System: AMES SALMONELLA TYPHIMURIUM, Strain/Indicator: TA100, Metabolic Activation: NONE, Method: PREINCUBATION): inactive; negative
mutagenic call (Test System: AMES SALMONELLA TYPHIMURIUM, Strain/Indicator: TA100, Metabolic Activation: RAT, LIVER, S-9, AROCLOR 1254, Method: PREINCUBATION): inactive; negative
mutagenic call (Test System: AMES SALMONELLA TYPHIMURIUM, Strain/Indicator: TA1535, Metabolic Activation: HAMSTER, LIVER, S-9, AROCLOR 1254, Method: PREINCUBATION): inactive; negative
mutagenic call [2]: inactive; negative
mutagenic call (Test System: AMES SALMONELLA TYPHIMURIUM, Strain/Indicator: TA1535, Metabolic Activation: RAT, LIVER, S-9, AROCLOR 1254, Method: PREINCUBATION): inactive; negative
mutagenic call (Test System: AMES SALMONELLA TYPHIMURIUM, Strain/Indicator: TA1537, Metabolic Activation: HAMSTER, LIVER, S-9, AROCLOR 1254, Method: PREINCUBATION): inactive; negative
mutagenic call (Test System: AMES SALMONELLA TYPHIMURIUM, Strain/Indicator: TA1537, Metabolic Activation: NONE, Method: PREINCUBATION): inactive; negative
mutagenic call (Test System: AMES SALMONELLA TYPHIMURIUM, Strain/Indicator: TA1537, Metabolic Activation: RAT, LIVER, S-9, AROCLOR 1254, Method: PREINCUBATION): inactive; negative
